Experimental data published in PubChem BioAssay AID212 (DTP/NCI, 2004).
Where “and” joins values, the source holds several entries; their conditions need not be identical. Equal entries are not always repeated. Inconclusive results are not listed.

System: BDF1 mice, colon carcinoma 38 sc, T/C %
Experiment: NCI In Vivo Anticancer Drug Screen. Data for tumor model Colon Carcinoma 38 (subcutaneous) in B6D2F1 (BDF1) mice
Details: endpoint: median tumor weight (est.), higher = larger tumour
In short: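 Transplantable tumor in mice; compound-treated vs vehicle-dosed controls. Measured survival or tumor size; value = T ÷ C.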

[1] = dose: 5.0 mg/kg/injection, schedule: Q07DX002 (ip), vehicle: saline
[2] = dose: 10.0 mg/kg/injection, schedule: Q07DX002 (ip), vehicle: saline
[3] = dose: 6.25 mg/kg/injection, schedule: Q07DX002 (ip), vehicle: saline
[4] = dose: 25.0 mg/kg/injection, schedule: Q07DX002 (ip), vehicle: saline
[5] = dose: 25.0 mg/kg/injection, schedule: Q07DX002 (ip), vehicle: suspension in saline
[6] = dose: 12.5 mg/kg/injection, schedule: Q07DX002 (ip), vehicle: saline
[7] = dose: 50.0 mg/kg/injection, schedule: Q07DX002 (ip), vehicle: saline
[8] = dose: 100.0 mg/kg/injection, schedule: Q07DX002 (ip), vehicle: saline
[9] = dose: 25.0 mg/kg/injection, schedule: Q07DX002 (ip), vehicle: Klucel (hydroxypropylcellulose) (HPC)
[10] = dose: 50.0 mg/kg/injection, schedule: Q07DX002 (ip), vehicle: Klucel (hydroxypropylcellulose) (HPC)
[11] = dose: 100.0 mg/kg/injection, schedule: Q07DX002 (ip), vehicle: Klucel (hydroxypropylcellulose) (HPC)
[12] = dose: 200.0 mg/kg/injection, schedule: Q07DX002 (ip), vehicle: saline
[13] = dose: 400.0 mg/kg/injection, schedule: Q07DX002 (ip), vehicle: saline
[14] = dose: 800.0 mg/kg/injection, schedule: Q07DX002 (ip), vehicle: saline

What does the source list for `CCCC(=O)O.CCCC(=O)O.CCCC(=O)O.CCCC(=O)O.[Rh].[Rh]`?
T/C (dose: 0.25 mg/kg/injection, schedule: Q07DX002 (ip), vehicle: saline + alcohol): 87 % of control; T/C (dose: 0.5 mg/kg/injection, schedule: Q07DX002 (ip), vehicle: saline + alcohol): 76 % of control; T/C (dose: 1.0 mg/kg/injection, schedule: Q07DX002 (ip), vehicle: saline + alcohol): 91 % of control

Which results are given for `CCOC(=O)C(CC(C)C)NC(=O)C(N)Cc1ccc(N(CCCl)CCCl)cc1` (centres undefined)?
T/C [1]: 43 % of control; T/C (dose: 5.0 mg/kg/injection, schedule: Q07DX002 (ip), vehicle: water): 86 % of control; T/C [2]: 65 % of control; T/C (dose: 10.0 mg/kg/injection, schedule: Q07DX002 (ip), vehicle: water): 71 % of control; T/C (dose: 20.0 mg/kg/injection, schedule: Q07DX002 (ip), vehicle: saline): 31 % of control; T/C (dose: 20.0 mg/kg/injection, schedule: Q07DX002 (ip), vehicle: water): 36 % of control

Which T/C (dose: 3.12 mg/kg/injection, schedule: Q07DX002 (ip), vehicle: saline) does the source give for `Cc1c2c(ccc3ccccc32)c[n+]2ccccc12` here?
The T/C was 154 % of control.

And the T/C [3]?
Its T/C is 118 % of control.

And the T/C (dose: 12.5 mg/kg/injection, schedule: Q07DX002 (ip), vehicle: suspension in saline)?
Its T/C is 102 % of control.

What about the T/C [4] of the same molecule?
The T/C was 107 % of control.

What about the T/C [5] of the same molecule?
The T/C was 91 % of control.

How did the T/C (dose: 5.0 mg/kg/injection, schedule: Q07DX002 (ip), vehicle: Klucel (hydroxypropylcellulose) (HPC)) turn out when `C(CC1CO1)C1CO1` (centres undefined) was run?
Its T/C is 172 % of control and 185 % of control.

And the T/C (dose: 10.0 mg/kg/injection, schedule: Q07DX002 (ip), vehicle: Klucel (hydroxypropylcellulose) (HPC))?
The T/C was 106 % of control.

And the T/C (dose: 40.0 mg/kg/injection, schedule: Q07DX002 (ip), vehicle: Klucel (hydroxypropylcellulose) (HPC))?
Its T/C is 245 % of control.

What about the T/C (dose: 80.0 mg/kg/injection, schedule: Q07DX002 (ip), vehicle: Klucel (hydroxypropylcellulose) (HPC)) of the same molecule?
Its T/C is 115 % of control.

And the T/C (dose: 160.0 mg/kg/injection, schedule: Q07DX002 (ip), vehicle: Klucel (hydroxypropylcellulose) (HPC))?
The T/C was 81 % of control.

`C[PH+](C)C.C[PH+](C)C.[Au]` was tested. Which T/C (dose: 1.25 mg/kg/injection, schedule: Q07DX002 (ip), vehicle: saline) did it give?
The T/C was 99 % of control.

And the T/C (dose: 2.5 mg/kg/injection, schedule: Q07DX002 (ip), vehicle: saline)?
The T/C was 84 % of control.

And the T/C [1]?
The T/C was 87 % of control.

What about the T/C [2] of the same molecule?
Its T/C is 65 % of control.

How did the T/C [3] turn out when `O=C(O)C1CSCN1` (centres undefined) was run?
Its T/C is 110 % of control.

And the T/C (dose: 6.25 mg/kg/injection, schedule: Q07DX002 (ip), vehicle: water)?
The T/C was 106 % of control.

And the T/C [6]?
Its T/C is 98 % of control.

What about the T/C [4] of the same molecule?
The T/C was 110 % of control.

And the T/C (dose: 25.0 mg/kg/injection, schedule: Q07DX002 (ip), vehicle: water)?
The T/C was 114 % of control.

And the T/C [7]?
Its T/C is 105 % of control.

And the T/C (dose: 50.0 mg/kg/injection, schedule: Q07DX002 (ip), vehicle: water)?
The T/C was 87 % of control.

What about the T/C [8] of the same molecule?
Its T/C is 80 % of control.

For `O=C1N(Cl)C(=O)C(c2ccc(Cl)cc2)(c2ccc(Cl)cc2)N1Cl`, which T/C (dose: 25.0 mg/kg/injection, schedule: Q07DX002 (ip), vehicle: saline with Tween-80) is on record?
The T/C was 87 % of control and 90 % of control and 100 % of control.

Which results are given for `Cc1ccc(C2NC(=S)N3C(c4ccc(C)cc4)NC(=S)N23)cc1` (centres undefined)?
T/C [9]: 94 % of control; T/C [10]: 79 % of control; T/C [11]: 83 % of control; T/C (dose: 200.0 mg/kg/injection, schedule: Q07DX002 (ip), vehicle: Klucel (hydroxypropylcellulose) (HPC)): 88 % of control; T/C (dose: 400.0 mg/kg/injection, schedule: Q07DX002 (ip), vehicle: Klucel (hydroxypropylcellulose) (HPC)): 89 % of control; T/C (dose: 800.0 mg/kg/injection, schedule: Q07DX002 (ip), vehicle: Klucel (hydroxypropylcellulose) (HPC)): 60 % of control

Which T/C (dose: 12.5 mg/kg/injection, schedule: Q07DX002 (ip), vehicle: DMSO) does the source give for `Oc1ccc(SCc2ccc(NCc3ccccc3)cc2)cc1` here?
The T/C was 75 % of control.

And the T/C (dose: 25.0 mg/kg/injection, schedule: Q07DX002 (ip), vehicle: DMSO)?
The T/C was 82 % of control.

What about the T/C (dose: 50.0 mg/kg/injection, schedule: Q07DX002 (ip), vehicle: DMSO) of the same molecule?
Its T/C is 85 % of control.

And the T/C (dose: 100.0 mg/kg/injection, schedule: Q07DX002 (ip), vehicle: DMSO)?
The T/C was 109 % of control.

What about the T/C (dose: 200.0 mg/kg/injection, schedule: Q07DX002 (ip), vehicle: DMSO) of the same molecule?
The T/C was 82 % of control.

For `COc1cccc(-c2cc(=O)c3cccc(CC(=O)O)c3o2)c1`, which T/C [6] is on record?
The T/C was 88 % of control.

What about the T/C [4] of the same molecule?
Its T/C is 97 % of control.

And the T/C [7]?
The T/C was 110 % of control.

And the T/C [8]?
The T/C was 33 % of control.

How did the T/C [3] turn out when `[Cl][Sn]([c]1ccccc1)[c]1ccccc1` was run?
The T/C was 113 % of control.

And the T/C [6]?
The T/C was 108 % of control.

And the T/C (dose: 12.5 mg/kg/injection, schedule: Q09DX002 (ip), vehicle: saline)?
Its T/C is 95 % of control.

And the T/C [4]?
Its T/C is 89 % of control.

And the T/C (dose: 25.0 mg/kg/injection, schedule: Q09DX002 (ip), vehicle: saline)?
Its T/C is 93 % of control.

Which T/C [4] does the source give for `NCCc1cc(O)c(O)c(O)c1` here?
Its T/C is 71 % of control.

What about the T/C [7] of the same molecule?
Its T/C is 62 % of control.

What about the T/C [8] of the same molecule?
Its T/C is 82 % of control.

What about the T/C [12] of the same molecule?
Its T/C is 80 % of control.

What about the T/C [13] of the same molecule?
The T/C was 110 % of control.

And the T/C [14]?
Its T/C is 51 % of control.

Which results are given for `CCOC(=O)C1=C(C#N)C2(CCC(OCc3ccccc3)CC2)C(=O)O1` (centres undefined)?
T/C [4]: 47 % of control; T/C [5]: 87 % of control; T/C [7]: 53 % of control; T/C [8]: 35 % of control; T/C (dose: 100.0 mg/kg/injection, schedule: Q07DX002 (ip), vehicle: suspension in saline): 115 % of control; T/C [12]: 73 % of control; T/C [13]: 47 % of control; T/C (dose: 400.0 mg/kg/injection, schedule: Q07DX002 (ip), vehicle: suspension in saline): 102 % of control; T/C [14]: 64 % of control; T/C (dose: 800.0 mg/kg/injection, schedule: Q07DX002 (ip), vehicle: suspension in saline): 102 % of control

With `Cc1ccc(C(=O)[O][Hg][CH2]C2COC([CH2][Hg][O]C(=O)c3ccc(C)cc3)CO2)cc1` (centres undefined) as the molecule, how does the T/C [9] read?
Its T/C is 186 % of control.

What about the T/C [10] of the same molecule?
The T/C was 177 % of control and 193 % of control.

What about the T/C [11] of the same molecule?
Its T/C is 154 % of control and 209 % of control.

`C=C1C(C)C2C(Cc3ccccc3)NC(=O)C23C(OC(C)=O)/C=C/C(C)(O)CC(C)C/C=C/C3C1O` (centres undefined) was tested. Which T/C (dose: 0.75 mg/kg/injection, schedule: Q07DX002 (ip), vehicle: Klucel (hydroxypropylcellulose) (HPC)) did it give?
Its T/C is 86 % of control.

What about the T/C (dose: 1.5 mg/kg/injection, schedule: Q07DX002 (ip), vehicle: Klucel (hydroxypropylcellulose) (HPC)) of the same molecule?
Its T/C is 115 % of control.

What about the T/C (dose: 3.0 mg/kg/injection, schedule: Q07DX002 (ip), vehicle: Klucel (hydroxypropylcellulose) (HPC)) of the same molecule?
The T/C was 77 % of control.

And the T/C (dose: 6.0 mg/kg/injection, schedule: Q07DX002 (ip), vehicle: Klucel (hydroxypropylcellulose) (HPC))?
Its T/C is 100 % of control.

And the T/C (dose: 12.0 mg/kg/injection, schedule: Q07DX002 (ip), vehicle: Klucel (hydroxypropylcellulose) (HPC))?
Its T/C is 95 % of control.

And the T/C (dose: 24.0 mg/kg/injection, schedule: Q07DX002 (ip), vehicle: Klucel (hydroxypropylcellulose) (HPC))?
Its T/C is 90 % of control.

What does the source list for `N/C(=N\O)c1cn(C2OC(CO)C(O)C2O)c2ncnc(N)c12` (centres undefined)?
T/C (dose: 1.0 mg/kg/injection, schedule: Q07DX002 (ip), vehicle: Klucel (hydroxypropylcellulose) (HPC)): 72 % of control; T/C (dose: 2.0 mg/kg/injection, schedule: Q07DX002 (ip), vehicle: Klucel (hydroxypropylcellulose) (HPC)): 82 % of control; T/C (dose: 4.0 mg/kg/injection, schedule: Q07DX002 (ip), vehicle: Klucel (hydroxypropylcellulose) (HPC)): 79 % of control; T/C (dose: 4.0 mg/kg/injection, schedule: Q07DX003 (ip), vehicle: Klucel (hydroxypropylcellulose) (HPC)): 6 % of control; T/C (dose: 8.0 mg/kg/injection, schedule: Q07DX002 (ip), vehicle: Klucel (hydroxypropylcellulose) (HPC)): 91 % of control; T/C (dose: 8.0 mg/kg/injection, schedule: Q07DX003 (ip), vehicle: Klucel (hydroxypropylcellulose) (HPC)): 17 % of control; T/C (dose: 16.0 mg/kg/injection, schedule: Q07DX002 (ip), vehicle: Klucel (hydroxypropylcellulose) (HPC)): 93 % of control; T/C (dose: 16.0 mg/kg/injection, schedule: Q07DX003 (ip), vehicle: Klucel (hydroxypropylcellulose) (HPC)): 7 % of control

How did the T/C (dose: 40.0 mg/kg/injection, schedule: Q07DX003 (ip), vehicle: Klucel (hydroxypropylcellulose) (HPC)) turn out when `O=c1[nH]c(=O)n([C@H]2CCCO2)cc1F` was run?
Its T/C is 166 % of control.

What about the T/C (dose: 80.0 mg/kg/injection, schedule: Q07DX003 (ip), vehicle: Klucel (hydroxypropylcellulose) (HPC)) of the same molecule?
The T/C was 116 % of control.

What about the T/C (dose: 160.0 mg/kg/injection, schedule: Q07DX003 (ip), vehicle: Klucel (hydroxypropylcellulose) (HPC)) of the same molecule?
The T/C was 57 % of control.

And the T/C (dose: 320.0 mg/kg/injection, schedule: Q07DX003 (ip), vehicle: Klucel (hydroxypropylcellulose) (HPC))?
The T/C was 25 % of control.
